Assay results from patent publication US20050124618A1, “Methods of modulating angiogenesis and cancer cell proliferation” (priority 2003, published 2005).

Key:
[1] = test system: 20-HETE; test: Urinary excretion of 20-HETE in rats (fluorescent HPLC assay); type: in vivo, rat; settings: chronic treatment with HET0016 for 7 days, 1 mg/kg ip twice daily
Description: (§1) The rats were divided in four groups. […] This dose was chosen based on our previous results (Kehl F et al., Am J Physiol Heart Circ Physiol 282: H1556-H1565, 2002).
Measurement of urinary excretion of 20-HETE: On the last day of electrical stimulation, rats were placed in a metabolic cage that efficiently separates urine from food. Just before the start of the urine collection, food was withdrawn to avoid contamination of the urine sample, and the 24-h control and treated urine samples were collected into a glass bottle packed with ice. The concentration of 20-HETE in the urine samples was measured using a fluorescent HPLC assay, as previously described (Maier K G et al., Am J Physiol Heart Circ Physiol 279: H863-H871, 2000). […] Excess dye was removed using Sep-Pak Vac extraction (Maier K G et al., Am J Physiol Heart Circ Physiol 279: H863-H871, 2000), and the samples were dried under argon, resuspended in 100 μl of methanol, and analyzed by reverse-phase HPLC (Waters) using a fluorescence detector (model number L-7480; Hitachi, Naperville, Ill.). The amount of 20-HETE in the sample was determined by comparing the area of the 20-HETE peak with that of the internal standard.

[2] = test system: 20-HETE; test: 20-HETE formation in electrically stimulated skeletal (TA) muscle of rats; type: in vivo, rat
Protocol: Experimental protocols and tissue preparation: After a 24-h recovery period, the implanted stimulator was activated by momentary closure of the magnetic reed switch using a small hand-held magnet. […] Contractions of the extensor digitorum longus (EDL) and tibialis anterior (TA) muscles were automatically initiated at 9 AM each day and sustained for 8 h/day over a consecutive 7-day period. At the end of the stimulation period, the animals were euthanized by an overdose of pentobarbital sodium (100 mg/kg ip), and the EDL and TA muscles were harvested for analysis as previously described (Greene A S et al., Hypertension 15: 779-783, 1990; and Parmentier J H et al., Hypertension 37: 623-629, 2001).
as §1
To determine the contribution of VEGF to the angiogenesis induced by electrical stimulation, six rats in group 3 were treated with 3 mg/kg ip injections of a monoclonal VEGF-neutralizing antibody (Texas Biotechnology; Houston, Tex.) during the period of electrical stimulation. The protocol for administration of VEGF-neutralizing antibody was modified from Zheng W et al. (Circ Res 85: 192-198, 1999), and this dose was based on our previous results (Amaral S L et al., Microcirculation 8: 57-67, 2001). After the stimulation period was started, the rats received intraperitoneal injections on days 3, 5, and 7 (0.6 mg/100 g).
Muscle preparations for measurement of 20-HETE: The 100-200 mg of frozen TA muscle were homogenized in a solution containing 1 ml of acidified water and 50 μl of an internal standard, WIT-002, which was synthesized and kindly provided by Taisho Pharmaceutical. Ethyl acetate (3 ml, Fisher Scientific; Pittsburgh, Pa.) was added to the mixture and gently vortexed. The homogenized tissues were then centrifuged at 3,000 revolutions/min for 2 min. With the use of a glass Pasteur pipet, the top layer was removed and transferred to a sterile glass vial, and the samples were dried under nitrogen and stored at −80° C.
Labeling of samples and fluorescent detection of 20-HETE: Detection of 20-HETE was performed as previously described (Ma Y H et al., Am J Physiol Regul Integr Comp Physiol 267: R579-R589, 1994). Samples, which were extracted and dried under argon, were resuspended in 20 μl of acetonitrile containing 36.4 mM 2-(2,3-napthalimino)ethyl trifluoromethanesulfonate, and N,N-diisopropylethylamine (10 μl) was added as a catalyst. The sample was reacted for 30 min at room temperature, dried under argon, resuspended in 1 ml of 40% acetonitrile-water, and applied to a Sep-Pak Vac column. The column was washed with 6 ml of 50% acetonitrile-water solution to remove unreacted dye, eluted with 500 μl of ethyl acetate, dried under argon, and resuspended in 100 μl of the HPLC mobile phase [methanol-water-acetic acid, 82:18:0.1 (vol/vol)]. A 25-μl aliquot of the derivatized sample was separated on a 4.6×250-mm Symmetry C18 reverse-phase HPLC column (Waters) isocratically at a rate of 1.3 ml/min using methanol-water-acetic acid (82:18:0.1 (vol/vol)) as the mobile phase. Fluorescence intensity monitored using an in-line fluorescence detector (model number L-7480, Hitachi; Naperville, Ill.) at medium gain sensitivity. The amount of 20-HETE in the sample was determined by comparing the area of the 20-HETE peak with that of the internal standard (WIT-002).

CCCCc1ccc(N=CNO)c(C)c1 [HET0016, N-hydroxy-N′-(4-butyl-2 methylphenyl) formamidine]
reduction of 24-h urinary 20-HETE excretion compared with the control group (lecithin) [1]: 36%
effect on the increase of 20-HETE formation induced by electrical stimulation ([2]; 7 days of electrical stimulation, chronic treatment): completely blocked
20-HETE formation in skeletal muscle, unstimulated side ([2]; rats treated 7 days, TA muscle): 110.26±28.36 ng/g muscle
20-HETE formation in skeletal muscle, stimulated side ([2]; rats treated 7 days, TA muscle, 7 days electrical stimulation): 102.1±22.3 ng/g muscle
effect on basal formation of 20-HETE in skeletal muscle ([2]; treatment for 7 days): did not change the basal formation
